Values of other authors, collected in patent US10238626B2, “Therapeutic compounds” (ARIZONA BOARD OF REGENTS ON BEHALF OF ARIZONA STATE …, priority 2017, dated 2019).

Assays:
hRXRβ = hRXRβ (Homo sapiens, UniProt P28702); conditions: read-out: EC50 for the hRXRβ isoform; literature (Santin et al. 2009)
hRXR [1] = conditions: Caco-2 cells; literature (Wagner et al. 2009)
hRXR [2] = conditions: Caco-2 cells; literature (Wagner et al. 2009); remark: listed apart in the source

Sequence of hRXRβ (P28702 whole entry, canonical isoform): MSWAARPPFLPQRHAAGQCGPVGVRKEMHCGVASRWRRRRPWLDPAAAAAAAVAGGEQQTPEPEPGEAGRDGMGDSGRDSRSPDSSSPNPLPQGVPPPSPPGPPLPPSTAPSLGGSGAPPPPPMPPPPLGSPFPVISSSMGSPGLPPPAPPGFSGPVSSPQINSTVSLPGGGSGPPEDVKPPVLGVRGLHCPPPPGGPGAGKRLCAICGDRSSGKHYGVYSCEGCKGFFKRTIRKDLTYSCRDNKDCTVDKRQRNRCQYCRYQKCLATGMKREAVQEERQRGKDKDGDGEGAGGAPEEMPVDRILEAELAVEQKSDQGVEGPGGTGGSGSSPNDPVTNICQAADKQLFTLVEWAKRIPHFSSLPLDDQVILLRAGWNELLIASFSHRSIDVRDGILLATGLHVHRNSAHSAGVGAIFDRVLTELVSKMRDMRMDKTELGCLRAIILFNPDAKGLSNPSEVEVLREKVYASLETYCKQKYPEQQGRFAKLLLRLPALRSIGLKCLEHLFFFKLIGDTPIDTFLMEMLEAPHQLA

Cc1cc2c(cc1-c1cc(/C=C/C(=O)O)ccc1O)C(C)(C)CCC2(C)C [CD3254]
EC50 (hRXRβ): ~10 nM

C=C(c1ccc(C(=O)O)c(F)c1)c1cc2c(cc1C)C(C)(C)CCC2(C)C [compound 3]
Kd (hRXR [1]): 12 nM
EC50 (hRXR [2]): 43 nM
